This is an account of results in ChEMBL document CHEMBL1201862, “PubChem BioAssay data set” (2004).

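48-hour exposure; five concentrations; linearly interpolated endpoints. Abbreviation: GI50, concentration required for 50% inhibition of growth.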 The source made the active and inactive calls. No stated cut-off is given here; in the data, active = GI50 up to about 1.1 µM and inactive = higher. Non-standard residues stand in square brackets, D forms with d. Residues, ends and D or L forms follow the SMILES beside them. ξ: configuration not given here. *: point of attachment. dThr(3ξ) = CC(O)[C@@H](N)C(=O)O; dNMeL = CN[C@H](CC(C)C)C(=O)O; OBn = c1ccc(CO*)cc1; ξLac = CC(O)C(=O)O

Test systems include SW-620; HCT-15; SN12C; HOP-92; U-251; Malme-3M; HL-60; NCI/ADR-RES; UACC-62; RXF 393; SR; DU-145; SF-295; A498; OVCAR-3; PC-3; UO-31; KM12; ACHN; SK-MEL-5.
What all share (assay): inhibition of tumour cell growth, NCI panel, 48 h

In the case of `CN1CCN(c2ccc(-n3cc(C(=O)O)c(=O)c4cc(F)c(N5CCN(C)CC5)cc43)nc2)CC1`, the GI50 is 56.2 µM (inactive) in the assay with SW-620; more than 100 µM in the assay on HCT-15; > 100 µM (inactive) in the assay with SN12C; > 100 µM (inactive) in the assay with HOP-92; > 100 µM (inactive) in the assay with U-251; 95.5 µM (inactive) in the assay with Malme-3M. For the same compound, the GI50 with HL-60, with NCI/ADR-RES, with UACC-62, in the assay with RXF 393, in the assay with SR and in the assay on DU-145 was > 100 µM (inactive) each time. The GI50 in the assay on SF-295 was > 100 µM (inactive); in the assay on A498 it was > 100 µM (inactive); with OVCAR-3, > 100 µM (inactive); with PC-3, > 100 µM (inactive); in the assay on UO-31, > 100 µM (inactive); in the assay with KM12, 33.6 µM (inactive).
As to `O=c1oc2ccc(Cl)cc2c2ccccc12`, the GI50 in the assay on SW-620 is > 100 µM (inactive); with HCT-15, more than 100 µM; with SN12C, > 100 µM (inactive); in the assay with HOP-92, 23.2 µM (inactive); with ACHN, > 100 µM (inactive); in the assay with U-251, 15.1 µM (inactive). In addition, the GI50 is > 100 µM (inactive) in the assay on Malme-3M; > 100 µM (inactive) with HL-60; 84.1 µM (inactive) in the assay with NCI/ADR-RES; 71.6 µM (inactive) with UACC-62; 22.1 µM (inactive) in the assay with RXF 393; > 100 µM (inactive) in the assay with SR. Further, the GI50 is > 100 µM (inactive) in the assay on DU-145; 34.4 µM (inactive) with SF-295; 75.7 µM (inactive) in the assay with A498; > 100 µM (inactive) in the assay with OVCAR-3; > 100 µM (inactive) in the assay on PC-3; 67.6 µM (inactive) in the assay on SK-MEL-5.
`Clc1ncnc2c1nc(C#Cc1ccccc1)n2Cc1ccccc1`: the GI50 was 4.09 µM (inactive) with SW-620; 4.81 µM with HCT-15; 18.8 µM (inactive) with SN12C; 27.1 µM (inactive) in the assay with HOP-92; 65.2 µM (inactive) in the assay on ACHN; 17.6 µM (inactive) in the assay on U-251. For the same compound, the GI50 in the assay on Malme-3M was > 100 µM (inactive); in the assay on HL-60 it was 7.83 µM (inactive); in the assay on NCI/ADR-RES, 60 µM (inactive); in the assay on UACC-62, 30.5 µM (inactive); in the assay with RXF 393, 16.3 µM (inactive); in the assay with SR, 3.08 µM (inactive). The GI50 was 7.52 µM (inactive) with DU-145; > 100 µM (inactive) in the assay on SF-295; > 100 µM (inactive) with A498; 3.99 µM (inactive) in the assay with OVCAR-3; 40.6 µM (inactive) in the assay on PC-3; 2.14 µM (inactive) in the assay with UO-31. Moreover, the values for the GI50 in the assay on KM12 and with SK-MEL-5 were 23.6 µM (inactive) and 32 µM (inactive), respectively.
Regarding `CC(=O)OC(C)[C@@H](NC(=O)[C@@H](CC(C)C)N(C)C(=O)[C@@H]1CCCN1C(=O)C(C)O)C(=O)OCc1ccccc1` (some centres undefined) (H-[ξLac]P[dNMeL][dThr(3ξ)](Ac)-OBn), the GI50 is > 100 µM (inactive) in the assay with SW-620; more than 100 µM in the assay with HCT-15; > 100 µM (inactive) in the assay on SN12C; > 100 µM (inactive) in the assay with HOP-92; > 100 µM (inactive) with ACHN; > 100 µM (inactive) in the assay on U-251. The GI50 in the assay with Malme-3M, with HL-60, with NCI/ADR-RES, in the assay with UACC-62, in the assay on RXF 393 and in the assay on SR was > 100 µM (inactive) in each case. The GI50 with DU-145, with SF-295, with A498, in the assay with OVCAR-3, in the assay with PC-3 and in the assay with UO-31 was > 100 µM (inactive) each time. Moreover, the GI50 in the assay on KM12 and in the assay with SK-MEL-5 was > 100 µM (inactive) throughout.
Regarding `O=C1c2ccccc2C(=O)c2c(NCC3CO3)ccc(NCC3CO3)c21` (centres undefined), the GI50 was 1.22 µM (inactive) with SW-620; 3.47 µM in the assay with HCT-15; 0.456 µM (active) in the assay with SN12C; 10.3 µM (inactive) in the assay on HOP-92; 0.303 µM (active) in the assay on ACHN; 1.65 µM (inactive) in the assay on U-251. Besides, the GI50 was 5.3 µM (inactive) in the assay on Malme-3M; < 0.01 µM (active) with HL-60; 1.6 µM (inactive) in the assay on NCI/ADR-RES; 1.08 µM (active) in the assay on UACC-62; 2.21 µM (inactive) in the assay on RXF 393; 0.0228 µM (active) in the assay with SR. The GI50 with DU-145 was 3.58 µM (inactive); in the assay on SF-295, 3.59 µM (inactive); in the assay with A498 it was 33.3 µM (inactive); with OVCAR-3, 4.54 µM (inactive); with PC-3 it was 1.91 µM (inactive); with UO-31 it was 1.87 µM (inactive). Also, the GI50 with KM12 is 3.85 µM (inactive); in the assay with SK-MEL-5, 1.68 µM (inactive).
With `Cc1cc(C)n(CC(Cn2nc(C)cc2C)=C(/C(Cl)=C(/Cl)Nc2ccc([N+](=O)[O-])cc2)[N+](=O)[O-])n1`, the GI50 with SW-620 is 2.42 µM (inactive); with HCT-15 it was 4.73 µM; in the assay with SN12C, 3.82 µM (inactive); in the assay on HOP-92, 2.47 µM (inactive); in the assay on ACHN, 3.25 µM (inactive); in the assay on U-251, 3.53 µM (inactive). Moreover, the GI50 is 3.61 µM (inactive) with Malme-3M; 1.54 µM (inactive) with HL-60; 8.07 µM (inactive) with NCI/ADR-RES; 3.9 µM (inactive) in the assay with UACC-62; 3.59 µM (inactive) with RXF 393; 2.48 µM (inactive) in the assay on SR. Also, the GI50 is 4.03 µM (inactive) in the assay with DU-145; 5.87 µM (inactive) in the assay with SF-295; 3.37 µM (inactive) with A498; 4 µM (inactive) with OVCAR-3; 3.42 µM (inactive) in the assay on PC-3; 2.74 µM (inactive) in the assay on UO-31. The GI50 in the assay on KM12 is 1.81 µM (inactive); in the assay with SK-MEL-5, 2.29 µM (inactive).
Take `O=C(/C=C/C(=O)N1CCCC1)N1CCCC1`: the GI50 in the assay with SW-620 is > 100 µM (inactive); in the assay on HCT-15 it was more than 100 µM; in the assay with SN12C it was > 100 µM (inactive); with HOP-92, > 100 µM (inactive); in the assay with ACHN, > 100 µM (inactive); in the assay with U-251, > 100 µM (inactive). The GI50 in the assay on Malme-3M, in the assay on HL-60, in the assay on NCI/ADR-RES, with UACC-62, in the assay with RXF 393 and in the assay with SR was > 100 µM (inactive) in each case. Moreover, the GI50 with DU-145, in the assay on SF-295, in the assay on A498, with OVCAR-3, in the assay on PC-3 and in the assay on UO-31 was > 100 µM (inactive) throughout. Further, the GI50 in the assay on KM12 and with SK-MEL-5 was > 100 µM (inactive) in each case.
Turning to `NCCCCNCCCNC(=O)CNC(=O)CC(O)C(N)CCCC(NC(=O)C(CN)NC(=O)C(O)CNC(=O)CC(N)c1ccc(O)cc1)C(=O)O` (centres undefined), the GI50 with HCT-15 is more than 10 µM; in the assay on SN12C it was > 10 µM (inactive); with HOP-92, > 10 µM (inactive); in the assay on ACHN, > 10 µM (inactive); in the assay with U-251 it was > 10 µM (inactive); in the assay with Malme-3M, > 10 µM (inactive). Further, the GI50 in the assay on HL-60, in the assay on NCI/ADR-RES, in the assay with UACC-62, in the assay on RXF 393, with SR and in the assay on DU-145 was > 10 µM (inactive) throughout. The GI50 in the assay on SF-295, with A498, with OVCAR-3, in the assay with PC-3, in the assay with UO-31 and with KM12 was > 10 µM (inactive) in each case. The GI50 with SK-MEL-5 is > 10 µM (inactive).
For the compound `CC(C)(C)N1CSC(=S)N(Cc2ccco2)C1`, the GI50 is 1.21 µM (inactive) in the assay with SW-620; 2.56 µM in the assay with HCT-15; 4.35 µM (inactive) in the assay on SN12C; 1.55 µM (inactive) in the assay on HOP-92; 3.27 µM (inactive) in the assay on ACHN; 3.72 µM (inactive) in the assay on U-251. The GI50 with Malme-3M is 4.16 µM (inactive); with HL-60 it was 1.53 µM (inactive); in the assay on NCI/ADR-RES, 4.11 µM (inactive); with UACC-62 it was 7.05 µM (inactive); in the assay on RXF 393 it was 5.87 µM (inactive); with SR, 0.555 µM (active). Besides, the GI50 in the assay with DU-145 is 3.85 µM (inactive); in the assay on SF-295, 15.8 µM (inactive); with A498, 13.3 µM (inactive); in the assay with OVCAR-3 it was 1.94 µM (inactive); with PC-3 it was 3.35 µM (inactive); in the assay with UO-31, 2.38 µM (inactive). The results for the GI50 in the assay on KM12 and with SK-MEL-5 were 2.7 µM (inactive) and 3.61 µM (inactive), respectively.
Consider `c1ccc2c(-c3csc(-c4c[nH]c5ccccc45)n3)c[nH]c2c1`, for which the GI50 in the assay with SW-620 was > 100 µM (inactive); in the assay on HCT-15 it was more than 100 µM; in the assay with SN12C, > 100 µM (inactive); with HOP-92 it was > 100 µM (inactive); in the assay with ACHN, > 100 µM (inactive); in the assay on U-251 it was > 90.6 µM (inactive). The GI50 in the assay on Malme-3M is > 100 µM (inactive); in the assay with HL-60 it was 14.4 µM (inactive); in the assay on NCI/ADR-RES, > 100 µM (inactive); with UACC-62, > 100 µM (inactive); with RXF 393, > 100 µM (inactive); with SR, 2.93 µM (inactive). Besides, the GI50 was > 76.7 µM (inactive) in the assay with DU-145; 15.4 µM (inactive) in the assay with SF-295; > 100 µM (inactive) in the assay on A498; > 100 µM (inactive) in the assay with OVCAR-3; > 100 µM (inactive) in the assay with PC-3; > 48.1 µM (inactive) with UO-31. Moreover, the GI50 with KM12 was 14.9 µM (inactive).
